Structures are written as SMILES.

One data set deals with RPMI 8226 myeloma cells. Kind of data set: Live/dead cell count, RPMI 8226 myeloma cells. The data set is classed as cell-based, human. Particulars: 48 hrs. On the procedure:
(§1) Culture Collection; ATCC) were cultured according to ATCC specifications: HeLa.S3 cervical adenocarcinoma, MCF7 breast adenocarcinoma, MDA-MB-231 breast adenocarcinoma (representing triple negative breast cancer), and RPMI 8226 myeloma. The cells were grown in 24 or 12-well cell culture plates. When the cells reached about 60% confluency (surface-growing HeLa.S3,MCF7 and MDA-MB-231) or a density of about 7×10^5 (suspension-growing RPMI 8226), the inhibitors dissolved in DMSO or the solvent (DMSO) diluted in respective culture medium were added and the cells were further cultured for additional 48 hours. […] The final concentration of the solvent was 1% (vol/vol). The number of live and dead cells after the treatment was approximated with calcein AM and ethidium homodimer (LiveDead test, Invitrogen) according to manufacturer's protocol, or by a Trypan Blue exclusion assay. In short, the cells after the treatment were washed three times with PBS and overlaid (surface-growing) or mixed (suspension-growing) with 4 microM calcein AM and 2 microM ethidium homodimer in PBS. Fluorescence of calcein and DNA-bound ethidium homodimer was measured with Fluoroskan Ascent plate reader, at 485 nm (excitation)/538 nm (emission) and 530 nm/619 nm, respectively. The cell counts were approximated using standard curves of live and digitonin-killed cells prepared for each strain. Alternatively, after cell treatment the medium was removed, the surface growing cells were overlaid with Trypan Blue solution, and the colorless (live) and blue-colored (dead) cells were counted under the inverted microscope.

Data set [1] concerns HeLa.S3 cervical carcinoma cells. Kind of data set: Live/dead cell count, HeLa.S3 cells. It is filed as cell-based, human. Conditions: up to 500 nM, 48 hrs. The procedure:
as §1

For data set [2], the system named is T1, human 20S proteasome, PGPH peptidase.
T1 construct: purchased Enzo LifeSciences
Kind of data set: PGPH peptidase activity of purified human 20S proteasome (CbzLLE-MCA). The data set is classed as biochemical. The procedure:
(§2) Human purified proteasome complexes were purchased from Enzo LifeSciences or Boston Biochemicals (19S complex). BODIPY-casein (Invitrogen/Molecular Probes) was used as a model protein substrate, with increasing fluorescence of BODIPY labeled peptide products of degradation monitored for up to 8 hours at 37° C. The peptidase activity of the enzyme was measured as arbitrary intensity units of the released fluorescent group 7-amino-4-methylcoumarin (AMC) from peptide substrates, as described. The common substrates specific for the three kinds of active sites: succinyl-LeuLeuValTyr-7-amido-4-methylcoumarin (Suc-LLVY-MCA; for the ChT-L activity; Bachem), butoxycarbonyl-LeuArgArg-MCA (BocLRR-MCA; for T-L; Bachem) and carbobenzoxy-LeuLeuGlu-MCA (CbzLLE-MCA; for PGPH; Enzo Life Sciences International, Inc.) were used at 100 μM final concentrations, unless stated otherwise (Gaczynska and Osmulski, 2005). Proteasome substrates, rapamycin, its derivatives, and competing peptides were stocked in DMSO and diluted 100-fold in the reaction mixtures. The Rpt5 and PA200 C-terminal peptides were synthesized in the Departmental Peptide Synthesis Core using the standard SPPS chemistry. To activate the latent 20S proteasome, 0.005% (final concentration) of sodium dodecyl sulfate (SDS) was used. The reactions were carried out in 96 well plates, with 2.3 nM proteasome and other components as indicated dissolved in 50 mM Tris-HCl buffer (pH 8.0) and incubated at 37° C. for up to 1 hour. The fluorescence of products was monitored every 2 minutes with a Fluoroskan Ascent plate reader. Reaction rates were calculated from smoothed linear segment of kinetic curves using OriginPro 8.6 (OriginLabs, Northampton, Mass.). For the determination of an inhibition type, at least six distinct substrate concentrations and two inhibitor concentrations were used. The kinetic parameters of inhibition were analyzed in terms of the Michaelis-Menten formalism using the enzyme kinetic module of SigmaPlot v.12 (Systat Software, Inc, San Jose, Calif.) to perform the respective calculations.
IC50 values (a drug concentration causing 50% inhibition of the indicated enzymatic activity) were calculated for ChT-L and PGPH peptidases. Kd (dissociation constant) and Bmax (maximal activation effect achieved; in % above the control activity) values were calculated for the T-L peptidase. Mean±SD from n=2 or 3 experiments, or data from representative experiments set in duplicates or triplicates, are presented in the table. All three peptidase activities changed by no more than ±20%, without a concentration-dependent trend, upon treatment with up to 10 μM of rapamycin unrelated mTOR inhibitors PI-103 or NVP-BEZ235, in two independent experiments.

Data set [3] relates to MDA-MB-231 (triple-negative breast cancer) cells. Kind of data set: Viability/growth of MDA-MB-231 cells. The data set is classed as cell-based, human. The procedure:
The cells were grown in 24 or 12-well cell culture plates. […] The final concentration of the solvent was 1% (vol/vol). The number of live and dead cells after the treatment was approximated with calcein AM and ethidium homodimer (LiveDead test, Invitrogen) according to manufacturer's protocol, or by a Trypan Blue exclusion assay. In short, the cells after the treatment were washed three times with PBS and overlaid (surface-growing) or mixed (suspension-growing) with 4 microM calcein AM and 2 microM ethidium homodimer in PBS. […] The cell counts were approximated using standard curves of live and digitonin-killed cells prepared for each strain. Alternatively, after cell treatment the medium was removed, the surface growing cells were overlaid with Trypan Blue solution, and the colorless (live) and blue-colored (dead) cells were counted under the inverted microscope.

Data set [4] has as its target T2, human 20S proteasome, ChT-L peptidase.
T2 construct: purchased Enzo LifeSciences
Kind of data set: ChT-L peptidase activity of purified human 20S proteasome (Suc-LLVY-MCA). It is filed as biochemical. Particulars: latent human 20S proteasome. The procedure: as §2, with “The common substrates specific for the three kinds of active sites: succinyl-LeuLeuValTyr-7-amido-4-methylcoumarin (Suc-LLVY-MCA; for the ChT-L activity; Bachem), butoxycarbonyl-LeuArgArg-MCA (BocLRR-MCA; for T-L; Bachem) and carbobenzoxy-LeuLeuGlu-MCA (CbzLLE-MCA; for PGPH; Enzo Life Sciences International, Inc.) were used at 100 μM final concentrations, unless stated otherwise (Gaczynska and Osmulski, 2005).” left out, “The reactions were carried out in 96 well plates, with 2.3 nM proteasome and other components as indicated dissolved in 50 mM Tris-HCl buffer (pH 8.0) and incubated at 37° C. for up to 1 hour.” left out, “calculations. […]” for “calculations.”
The in vitro assay for testing the ChT-L peptidase activity of the purified human 20S proteasome was performed as described above.

In data set [5] the test system is MCF7 breast carcinoma cells. Kind of data set: Live/dead cell count, MCF7 cells. The data set is classed as cell-based, human. Conditions: seco-rapamycin alone, 48 hrs, 100% = total cell count in control. On the procedure: as §1, with “In short, the cells after the treatment were washed three times with PBS and overlaid (surface-growing) or mixed (suspension-growing) with 4 microM calcein AM and 2 microM ethidium homodimer in PBS.” left out, “The cell counts were approximated using standard curves of live and digitonin-killed cells prepared for each strain.” left out

For `CO[C@@H](C[C@@H]1CC[C@@H](C)[C@](O)(C(=O)C(=O)N2CCCC[C@H]2C(=O)[O-])O1)/C(C)=C/C=C/C=C/[C@@H](C)C[C@@H](C)C(=O)[C@H](OC)[C@H](O)/C(C)=C/[C@@H](C)C(=O)/C=C/[C@H](C)C[C@@H]1CC[C@@H](O)[C@H](OC)C1.[Na+]` [seco-rapamycin], the “drop in the live cell count” value in the data set with RPMI 8226 myeloma cells (100 nM) is recorded as 50%. Moreover, in the data set with RPMI 8226 myeloma cells (200 nM), the cells alive entry is given as “only one-third of the control cells alive”. In addition, the cytotoxicity entry in data set [1] is reported as “did not reveal cytotoxicity”. The “inhibition of post-acidic (PGPH) cleavages” value in data set [2] (5 μM) is reported as about 50%. The IC50 in data set [2] (latent human 20S proteasome) is 6.45 ± 0.78 µM; in data set [4], over 20 µM. In data set [3] (24 hours, drug alone, read-out: EC50 (concentration required to exclude 50% of cells)), the EC50 came out at 0.869 µM. In addition, the “growth of MDA-MB-231 cells” value in data set [3] (seco-rapamycin alone) was “attenuated growth”. In addition, in data set [5], the dead cells count result is “about 60%”.

The record behind these values is patent publication US9918968B2, “Rapamycin analogs targeting proteasome function in the treatment of cancer” (THE BOARD OF REGENTS OF THE UNIVERSITY OF TEXAS SYSTEM, priority 2013, dated 2018).
